The conditions of data set [1]: humans ref Carlhant et al. [1990]; cited from earlier work.
The nature of data set [2]: Pharmacokinetic study in rats after single i.v. or i.p. tianeptine, non-compartmental analysis. As to conditions: rat. As to the method:
Male Wistar rats, 13–15 weeks of age and weighing between 200 and 220 g, were used in all the experiments. They were kept under conditions of constant temperature (21–25 °C) and a relative humidity of approximately 40–65% with a standard light/dark cycle. Animals were housed in the stainless steel cages with suspended wire-mesh floors and had free access to water and the commercial rodent chow.
Six rats were used in PK experiments, and 3 days prior to the experiment, rat jugular vein was cannulated allowing for the multiple blood sampling from a single animal. […] Plasma was harvested by centrifuging at 3000 r.p.m. for 10 min and stored at − 30°C until bioanalysis. Plasma samples (100 μL) were further processed as described in “Sample preparation” section.
(§1) Pharmacokinetic parameters were calculated by employing a non-compartmental approach, using Phoenix WinNonlin software v. 6.3 (Pharsight, USA). For i.v. administration, plasma concentration at time zero (C 0) was back-extrapolated using log-linear regression, while the maximum concentration after i.p. administration (C max) and the time to C max (t max) were obtained directly from the concentration-time data. The area under the mean plasma concentration versus time curve extrapolated to infinity (AUC0-inf) was estimated using the log/linear trapezoidal rule. AUMC0-inf was estimated by calculation of the total area under the first-moment curve by combining the trapezoid calculation of AUMC0-t and extrapolated area. The mean residence time (MRT) was calculated from AUMC0-inf/AUC0-inf. The terminal rate constant (λ z) was calculated by log-linear regression of the drug concentration data in the terminal phase and the terminal half-life (t 1/2) was calculated as 0.693/λ z. The systemic clearance (CL) was estimated from the administered dose divided by AUC0-inf. The volume of distribution at steady state (V ss) was calculated from D i.v.⋅AUMC/AUC^2, where D i.v is the dose administered i.v. in mg per kg of body weight. The concentration versus time profiles of the parent drug and metabolite following both routes of administration were also fitted simultaneously to the pharmacokinetic model with a metabolite compartment to obtain one set of parameters. During iteration process, the fraction of dose absorbed (F) was fixed to the value calculated using the following equation:1 F=AUC0−ti.p.∙Di.v./AUC0−ti.v.∙Di.p.
where AUC0-t is the area under the concentration versus time curve calculated to the last measured point and D is the dose administered.

Data set [3] in a line: Stability of analytes in rat plasma (bench top, freezer, freeze/thaw, autosampler). To be noted: bench top 2 h, − 30°C 90 days, autosampler 10°C up to 24 h. Format: in vitro ADME. The procedure:
The stability of analytes was determined in the battery of tests according to the appropriate guidelines. Namely, the bench top stability (for 2 h), freezer stability (at − 30°C for 90 days), freeze/thaw stability and post preparative autosampler stability (at 10°C up to 24 h). Samples were considered to be stable when 85–115% of the initial concentrations were found.

Data set [4] is described as follows: Isolated perfused rat liver (IPRL) study, recirculating. To be noted: for form eliminated with bile: mass spectrometric analysis of rat bile, precursor ion 292 mode. The procedure:
Rat livers were perfused in situ using PS-1 perfusion system from Harvard Apparatus-Hugo Sachs Electronics (HA-HSE). […] The temperature of the perfusion medium was thermostatically controlled at 37 °C. In each experiment, the common bile duct was cannulated with PE-10 tubing. […] Experiments were carried out in a recirculating manner with the total volume of perfusate equal 200 mL. […] Samples of bile were collected in pre-weighed Eppendorf vials and measured by gravimetric volume at the end of perfusion period, assuming a density of 1. Perfusate was collected from the reservoir at 5 min intervals up to 45 min.
Non-compartmental estimates of hepatic pharmacokinetic parameters were determined from the outflow concentration-time profiles. The hepatic extraction ratio (ERH) was calculated according to the following equation:2 ERH=CLH/Q where CLH is a hepatic clearance (per gram of liver) and Q is a perfusate flow (per gram of liver).
The apparent hepatobiliary clearance (CLb,app) was calculated as the cumulative amount of drug excreted in bile divided by the AUC0-t of the drug in the perfusate.

Data set [5] in a line: PK model with a metabolite compartment fitted simultaneously to i.v. and i.p. rat plasma data. As to the method:
as §1

Setting [6] is: male, Wistar, in vivo, ip, 10 mg/kg.
The mark [7] stands for this setting: male, Wistar, in vivo, iv, 1 mg/kg.

Counter-ions that a name gives are not always drawn.

`CN1c2ccccc2C(NCCCCC(=O)O)c2ccc(Cl)cc2S1(=O)=O` (centres unmarked) [MC5, tianeptine metabolite MC5 sodium salt]: the “time to C max” value in data set [1] is given as 2.96 ± 0.95 h. The “time at which C max attained” value in data set [2] (after both routes of administration (i.v. and i.p.) of tianeptine) came to 30 min. Further, the “t 0.5λz” value in data set [2] (after tianeptine i.p. 10 mg/kg, GM (90% CI), n = 3) is listed as 3.69 (1.39–9.83) h. Besides, in data set [2] (setting [6]), the concentration peaked (Cmax) at 2020 ng/mL; the mean residence time MRT (commonly a mean duration of stay, worked out from the concentration-time curve) was determined as 4.1 h; the time of peak concentration (Tmax) (in general, the time from dosing to the highest level) was 0.5 h; the k el was 5.19e-05 s⁻¹. For the same molecule, in data set [2] (setting [7]), the mean residence time MRT was 8.28 h; the Tmax came out at 0.4 h; the half-life (in general, the time needed for the level to fall by half in the phase considered) is 7.53 h; the k el is 2.5e-05 s⁻¹. In addition, the “overall exposure (AUC) to MC5 relative to tianeptine” value in data set [2] (regardless of the route of administration) amounted to 1.2 times. Besides, in data set [3], the “stability in rat plasma” value was “no stability related problems”. The “metabolic ratio of MC5 (AUC0-t metabolite / AUC0-t tianeptine)” value in data set [4] (isolated perfused rat liver, mean ± SD) turned out to be 18.76 ± 8.11%. For the same molecule, in data set [4], the “form eliminated with bile” value was “glucuronide and glutamine conjugates”. Further, in data set [4] (up to 45 min of perfusion, mean ± SD), the “percent eliminated into the bile” value is 3.07 ± 0.66 % of the administered dose. Further, in data set [5] (male, Wistar, in vivo), the half-life was 1.66 h and the k el is 0.000116 s⁻¹. Further, the V m/f m in data set [5] (metabolite compartment, i.v. and i.p. fitted simultaneously) amounted to 2.971 L/kg.

Consider `CN1c2ccccc2C(NCCCCCCC(=O)O)c2ccc(Cl)cc2S1(=O)=O` (centres unmarked) [Tianeptine, Tianeptine sodium salt, reference compound], for which, in data set [4], the “form eliminated with bile” value is “glucuronide and glutamine conjugates”.

The values are drawn from paper PMC5778159 (Naunyn-Schmiedeberg's Archives of Pharmacology, 2017).
